What was measured:
Assay type in all cases: cell-based, human
glutathione = assay: Production level of glutathione in NHEK cells; conditions: 24 h, control = 100%
Experimental: Continuously-cultivated NHEK cells in EpiLife medium were collected, resuspended in EpiLife medium, inoculated to culture plates with 10 cm in diameter in an amount of 1×10^6 cells/10 mL/plate, and cultured for 24 hours. Thereafter, each culture supernatant was removed by sucking, and any of the test solutions was added to the remaining cells in a volume of 10 mL/plate, followed by culturing the cells for another 24 hours. As a control, cells were added with only D-MEM medium in an amount of 10 mL/plate and cultured for 24 hours. Each culture supernatant was removed from each plate, then ice-chilled Dulbecco's PBS (−), commercialized by Nissui Pharmaceutical Co., Ltd., Tokyo, Japan, was added to rinse the remaining cells, which were then collected with a scraper. Glutathione was quantified on “Glutathione Assay Kit”, a product name of glutathione assay kit commercialzied by BioVision, Inc., San Francisco, USA. In this experiment, the control and test solutions in respective three plates were assayed for glutathione production level for each plate and averaged for obtaining the glutathione production level of each solution. A 5% v/v CO2 incubator was used for culturing NHEK cells in any case. Relative values of test samples were determined with the proviso that the production levels of reduced glutathione and total glutathione in NHEK cells that had been cultured with only EpiLife medium were respectively regarded as 100%, and the results are in Table 5.

hyaluronic acid = assay: Hyaluronic acid production in NHEK cells (ELISA); conditions: 3 days, control 1003 ± 111.6
Description: In accordance with “Evaluation Method for Enhancing Hyaluronic acid Synthesis” disclosed in “Evaluation and Experimental Manual for Humectancy, Skin whitening, Anti-wrinkle, and Anti-oxidation”, edited by Hitoshi Masaki, published by Fragrance Journal, pp. 94 to 97, 2012, NHEK cells as a model for typical normal human epidermal cells were suspended in EpiLife medium (pH 7.4), commercialized by Invitrogen Corporation, Calif., USA, inoculated to 12-well microplates at a cell density of 5×10^4 cells/well, and incubated overnight under conditions of 37° C. and 5% v/v CO2. Thereafter, the cell culture medium was replaced with a fresh HuMedia-KG2 medium commercialized by Kurabo Industries Ltd., Osaka, Japan; and “AA2G”, a particulate composition containing anhydrous crystalline ascorbic acid 2-glucoside, commercialized by Hayashibara Co., Ltd., Okayama, Japan, was added to each well to give a final concentration of 0.25, 0.5, or 1 mM, followed by culturing the cells for three days under the conditions of 37° C. and 5% v/v CO2. After completion of the culture, the supernatant in each well was immediately collected and quantified for hyaluronic acid by “Hyaluronan, DuoSet Kit”, product code: DY3614, a product name of a commercialized enzyme-linked immunosorbent assay (ELISA) purchased from R & D Systems, Minneapolis, USA. As a control, there was provided a culture system, where cells are cultured similarly as above except for not adding ascorbic acid 2-glucoside.

Filaggrin = assay: Expression of proliferation marker protein filaggrin in NHEK cells (Western); conditions: 5 days, control regarded as 50%
Experimental: Normal human epidermal keratinocytes from neonatal foreskin (NHEK cells) were prepared into 2.5×10^5 cells/mL with EpiLife medium, inoculated to 12-well plates in a volume of 1 mL/well, and cultured at 37° C. for one day under a 5% v/v CO2 condition. Thereafter, each supernatant was removed, and a medium, to which ascorbic acid 2-glucoside had been added to give a final concentration of 300 or 600 μM, was added to the resulting cells in a volume of 1 mL/well, followed by culturing the cells at 37° C. for two days under a 5% v/v CO2 condition. Another cell culture system, which had been similarly cultured in a medium free of ascorbic acid 2-glucoside, was provided as a control. The cells cultured with ascorbic acid 2-glucoside were further added with a medium supplemented with the same concentration of sodium salt of ascorbic acid 2-glucoside as that in the above medium in a volume of 1 mL/well, and cultured for another three days under the same conditions. […] Each of the resulting extract was centrifuged to collect a supernatant, and a part of which was subjected to protein quantification. […]

Work on `O=C1O[C@H]([C@@H](O)CO)C(O)=C1O[C@H]1O[C@H](CO)[C@@H](O)[C@H](O)[C@H]1O` [ascorbic acid 2-glucoside, 2-O-α-D-glucosyl-L-ascorbic acid] yielded a Reduced glutathione (glutathione; 0.5 mM) of 106%, a Total glutathione (glutathione; 0.5 mM) of 106% and a Reduced glutathione (glutathione; 1.0 mM) of 111%. It also gave a Total glutathione (glutathione; 1.0 mM) of 111%, a Reduced glutathione (glutathione; 2.0 mM) of 117% and a Total glutathione (glutathione; 2.0 mM) of 117%. The “Hyaluronic acid concentration in culture supernatant” value (shortened to “Hyaluronic acid concentration”) (hyaluronic acid; 0.25 mM) was 1222 ± 93.6 ng/mL, the “Hyaluronic acid concentration” value (hyaluronic acid; 0.5 mM) was 1268 ± 125.2 ng/mL and the “Hyaluronic acid concentration” value (hyaluronic acid; 1 mM) was 1436 ± 216 ng/mL. For the same compound, the “Relative expression level, Filaggrin” value (Filaggrin; 300 μM) was 65% and the “Relative expression level, Filaggrin” value (Filaggrin; 600 μM) was 71%.

Reference: patent US10111822B2, “External dermal composition for anti-ageing and method for producing the same” (Hayashibara Co., Ltd., priority 2012, dated 2018)
